Test results from patent US4528194A, “2-(4-Diphenylmethylpiperazinyl)-1-phenyl alkanol or their salts, a process for their production and a cerebral circulation-improving drug” (Nippon Chemiphar Co., Ltd., priority 1982, dated 1985).
Where a name gives a salt, the structure may show the parent alone. Read-outs that look alike come from different tables or passages of the source.

Key:
[1] = system: vertebral blood flow and femoral blood flow; test: Test 1: Peripheral Vasodilating Effect; format: in vivo, Mongrel dogs; settings: 1 mg/kg i.v.; for Percentage of vertebral blood flow increase / Percentage of vertebral blood flow increase against percentage of femoral blood flow increase: anesthetized dogs, 5% aqueous tartaric acid solution, except compounds footnoted: (1) dimethylsulfoxide, (2) distilled water, (3) physiological saline
Procedure: Mongrel dogs of both sexes each weighing about 10 kg were anesthetized with sodium pentobarbital (35 mg/kg, i.v.). Artificial respiration was performed with room air. The vertebral blood flow and femoral blood flow were measured by an electromagnetic flowmeter (Nihon Koden, MF-27) with flow probes. The blood pressure and heart rate were measured at the same time. For intravenous administration of each compound (1 mg/kg), the cephalic vein was cannulated and the compound solution injected.

[2] = system: platelets (ADP-induced coagulation); test: Test 2: Platelet Anti-coagulating Effect, ADP-induced coagulation; format: in vivo, Male Wistar rats; settings: Rattus norvegicus, 250 mg/kg oral, rats, 3 hours after administration, ADP 2.7 uM, read-out: Inhibition percentage, ADP (2.7 uM)
Procedure: (§1) Male Wistar rats each having a body weight of about 300 g were orally administered with the test compounds. With the lapse of 3 hours after administration of the compound, each rate was anesthetized with ether, and the blood was collected from its abdominal vein. […] The blood was centrifuged at 1,000 rpm for 10 minutes. The resultant platelet-rich plasma (PRP) was centrifuged for further 10 minutes at 3,000 rpm, thereby collecting a platelet-poor plasma (PPP).
(§2) ADP or collagen was added to the PRP obtained above to induce coagulation, and the thus coagulated platelets were measured by turbidimetry using a platelet aggregation tracer ("PAT-4A", tradename of Niko Kizai Kabushiki Kaisha, Japan). The coagulation inhibition percentage was determined by the following equation: [formula] A: Maximum percentage of coagulation when a compound was administered B: Maximum percentage of coagulation when physiological saline was administered

[3] = system: platelets (collagen-induced coagulation); test: Test 2: Platelet Anti-coagulating Effect, collagen-induced coagulation; format: in vivo, Male Wistar rats; settings: Rattus norvegicus; for inhibition at 250 mg/kg: 250 mg/kg oral, collagen 17.4 ug/ml, read-out: Inhibition percentage, Collagen (17.4 ug/ml)
Procedure: as §1, §2

[4] = Test 3: Acute Toxicity, oral, rats; settings: rat, in vivo, 7 days observation
Procedure: (§3) Certain test compounds of the invention were administered orally to SD-strain female or male rats each having a body weight of 150 to 200 g of ddN-strain male mice each having a body weight of about 20 g.

[5] = Test 3: Acute Toxicity, oral, mice; settings: mouse, in vivo, 7 days observation
Procedure: as §3

[6] = 200 mg/kg oral, rats, 3 hours after administration, collagen 6.25 ug/ml, read-out: Inhibition percentage, Collagen (6.25 ug/ml)
[7] = rats, 3 hours after administration
[8] = footnote * of Table 1, dogs, in dimethylsulfoxide

Row | Compound | Percentage of vertebral blood flow increase [1] | Percentage of vertebral blood flow increase against percentage of femoral blood flow increase [1] | LD50 at 168 h [5] | further results
1 | C[C@@H]([C@H](O)c1ccc(O)cc1)N1CCN(C(c2ccccc2)c2ccccc2)CC1 (relative stereo) [Inventive compound 2, dl-erythro-2-(4-Diphenylmethylpiperazinyl)-1-(4-hydroxyphenyl)propanol.1/2tartrate] | 66% | 3.5 | – | inhibition at 250 mg/kg [2]: 16%; inhibition at 200 mg/kg [3, 6]: 40%; inhibition at 250 mg/kg [3, 7]: 17%; LD50 at 168 h [4]: > 2000 mg/kg
2 | OC(CN1CCN(C(c2ccccc2)c2ccccc2)CC1)c1ccc(OCc2ccccc2)cc1OCc1ccccc1 (stereo not shown) [Inventive compound 5, 1-(2,4-Dibenzyloxyphenyl)-2-(4-diphenylmethylpiperazinyl)ethanol.monohydrochloride] | 62% | 15.3 | > 2000 mg/kg | blood flow increase, course [1, 8]: increased in two phases; increased blood flow lasted for [1, 8]: 30 min
3 | OC(CN1CCN(C(c2ccccc2)c2ccccc2)CC1)c1ccc(OCc2ccccc2)cc1 (stereo not shown) [Inventive compound 4, 1-(4-Benzyloxyphenyl)-2-(4-diphenylmethylpiperazinyl)ethanol.monohydrochloride] | 90% | 5.8 | > 2000 mg/kg | –
4 | COc1ccc(C(O)CN2CCN(C(c3ccccc3)c3ccccc3)CC2)c(OC)c1 (stereo not shown) [Inventive compound 7, 1-(2,4-Dimethoxyphenyl)-2-(4-diphenylmethylpiperazinyl)ethanol.dihydrochloride] | 123% | 5.8 | 350 mg/kg | –
5 | COc1ccc(C(O)CN2CCN(C(c3ccccc3)c3ccccc3)CC2)c(OC)c1OC (stereo not shown) [Inventive compound 9, 2-(4-Diphenylmethylpiperazinyl)-1-(2,3,4-trimethoxyphenyl)ethanol.dihydrochloride] | 124% | 6.1 | 1230 mg/kg | inhibition at 200 mg/kg [3, 6]: 90%
6 | CC(=O)Oc1ccccc1C(=O)O [Aspirin, reference compound] | – | – | – | inhibition at 200 mg/kg ([3]; read-out: inhibition against collagen): 99%
7 | CN(C)CCCOC1(Cc2ccccc2)CCCCCC1 [compound 4, Bencyclane fumarate, reference compound] | 67% | 2.9 | – | inhibition at 250 mg/kg [2]: 0%; inhibition at 250 mg/kg [3, 7]: 0%
8 | C[C@@H]([C@@H](O)c1ccc(OCc2ccccc2)cc1)N1CCN(C(c2ccccc2)c2ccccc2)CC1 (relative stereo) [Inventive compound 6, dl-threo-1-(4-Benzyloxyphenyl)-2-(4-diphenylmethylpiperazinyl)propanol.dihydrochloride] | 96% | 8.5 | – | –
9 | C(=C\c1ccccc1)/CN1CCN(C(c2ccccc2)c2ccccc2)CC1 [compound 5, Cinnarizine, reference compound] | 60% | 2.5 | – | –
10 | COc1ccc(C(O)CN2CCN(C(c3ccccc3)c3ccccc3)CC2)cc1OC (stereo not shown) [Inventive compound 8, 1-(3,4-Dimethoxyphenyl)-2-(4-diphenylmethylpiperazinyl)ethanol.dihydrochloride] | 84% | 15.3 | 470 mg/kg | –
11 | OC(CN1CCN(C(c2ccccc2)c2ccccc2)CC1)c1ccccc1 (stereo not shown) [compound 2, 2-(4-Diphenylmethylpiperazinyl)-1-phenylethanol.dihydrochloride, reference compound] | 25% | 1.3 | – | –
12 | C[C@@H]([C@@H](O)c1ccc(O)cc1)N1CCN(C(c2ccccc2)c2ccccc2)CC1 (relative stereo) [Inventive compound 3, dl-threo-2-(4-Diphenylmethylpiperazinyl)-1-(4-hydroxyphenyl)propanol.tartrate] | 60% | 3.2 | – | –
13 | C=CCOc1cc(OC)ccc1C(O)CN1CCN(C(c2ccccc2)c2ccccc2)CC1 (stereo not shown) [Inventive compound 12, 1-(2-Allyloxy-4-methoxyphenyl)-2-(4-diphenylmethylpiperazinyl)ethanol.dihydrochloride] | 123% | 7.7 | – | –
14 | Oc1ccccc1C(O)CN1CCN(C(c2ccccc2)c2ccccc2)CC1 (stereo not shown) [compound 1, 2-(4-Diphenylmethylpiperazinyl)-1-(2-hydroxyphenyl)ethanol.monohydrochloride, reference compound] | 26% | 1.2 | – | –
15 | C=CCOc1ccc(C(O)CN2CCN(C(c3ccccc3)c3ccccc3)CC2)cc1 (stereo not shown) [Inventive compound 11, 1-(4-Allyloxyphenyl)-2-(4-diphenylmethylpiperazinyl)ethanol.monohydrochloride] | 93% | 2.0 | > 2000 mg/kg | –
16 | Oc1ccc(C(O)CN2CCN(C(c3ccccc3)c3ccccc3)CC2)cc1 (stereo not shown) [Inventive compound 1, 2-(4-Diphenylmethylpiperazinyl)-1-(4-hydroxyphenyl)ethanol.monohydrochloride] | 76% | 3.6 | – | inhibition at 250 mg/kg [2]: 28%; inhibition at 200 mg/kg [3, 6]: 81%; inhibition at 250 mg/kg [3, 7]: 25%; LD50 at 168 h [4]: > 2000 mg/kg
17 | CC(O)(CN1CCN(C(c2ccccc2)c2ccccc2)CC1)c1ccccc1 (stereo not shown) [compound 3, 2-(4-Diphenylmethylpiperazinyl)-1-methyl-1-phenylethanol.dihydrochloride, reference compound] | 20% | 1.1 | – | –
18 | COc1cc(C(O)CN2CCN(C(c3ccccc3)c3ccccc3)CC2)cc(OC)c1OC (stereo not shown) [Inventive compound 10, 2-(4-Diphenylmethylpiperazinyl)-1-(3,4,5-trimethoxyphenyl)ethanol.monohydrochloride] | 95% | 4.6 | > 2000 mg/kg | –
